According to patent publication US7262340B2, “Gibberellin 2-oxidase” (Rothamsted Research Limited, priority 1998, dated 2007):

Key:
[1] = target: T1, PcGA2ox1 (Phaseolus coccineus, UniProt Q9XG83); assay: Incubation of recombinant GA 2-oxidase PcGA2ox1 (E. coli lysate) with 14C-labelled GA substrates; format: biochemical; conditions: for 2β-Hydroxy GA product / GA-catabolite Product: E. coli cell lysate, 14C-labelled GA substrate and cofactors, 2.5 h, HPLC-radiomonitoring; for conversion of C20-GA substrate: 14C-labelled substrate, dioxygenase cofactors
T1 construct: unnamed vector-encoded fusion partner (phagemid expression); made in house; host or cells: E. coli (crude cell lysate)
T1 sequence (Q9XG83 1-331): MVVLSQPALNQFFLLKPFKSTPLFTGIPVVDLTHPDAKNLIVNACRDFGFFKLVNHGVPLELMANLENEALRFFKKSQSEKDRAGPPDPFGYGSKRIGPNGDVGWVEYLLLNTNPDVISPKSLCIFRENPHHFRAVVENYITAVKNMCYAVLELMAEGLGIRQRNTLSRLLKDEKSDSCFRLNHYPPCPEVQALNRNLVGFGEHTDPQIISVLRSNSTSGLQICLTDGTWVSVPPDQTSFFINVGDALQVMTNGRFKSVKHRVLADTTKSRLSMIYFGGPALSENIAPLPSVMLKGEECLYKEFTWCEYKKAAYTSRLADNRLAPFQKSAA
Method: (§1) GA 2β-hydroxylase activity was determined by measuring the release of 3H2O from a 2β tritiated GA substrate, as described by Smith and MacMillan (Smith, V. A., and MacMillan, J. in J. Plant Growth Regulation 2 251-264 (1984)). The bacterial lysate (90 μl) was incubated with [1,2-^3H2]GA4 or [2,3-^3H2]GA9 (ca. 50000 dpm), in the presence of 4 mM 2-oxoglutarate, 0.5 mM Fe(II)SO4, 4 MM ascorbate, 4 mM DTT, 1 mg/ml catalase, 2 mg/ml BSA, in a final reaction volume of 100 μl. The mixture was incubated at 30° C. for 60 min. The tritiated GAs were removed by the addition of 1 ml of activated charcoal (5% w/v) and subsequent centrifugation for 5 min in a microfuge. Aliquots (0.5 ml) of the supernatant were mixed with 2 ml scintillation fluid and the radioactivity determined by scintillation counting.
(§2) In order to confirm the function of the cDNA expression products, bacterial lysate was incubated with [17-^14C]GAs in the presence of cofactors, as described above. After the incubation, acetic acid (10 μl) and water at pH 3 (140 μl) were added, and the mixture was centrifuged at 3,000 rpm for 10 min. The supernatant was analysed by HPLC with on-line radiomonitoring and products identified by GC-MS, as described previously (MacMillan et al Plant Physiol. 113 1369-1377 (1997)).
(§3) The catalytic properties of the recombinant proteins obtained by expressing the cDNAs from P. coccineus (PcGA2ox1) and A. thaliana (AtGA2ox1, AtGA2ox2 and AtGa2ox3) in E. coli were examined by incubating in the presence of dioxygenase cofactors with a range of ^14C-labelled GA substrates, consisting of the C19-GAs GA1, GA4, GA9 and GA20, and the C20-GAs, GA12 and GA15. This last compound was incubated in both its closed and open lactone forms. […] The mass spectnum of the product from GA15 is consistent with it being 2β-hydroxyGA15, although, because the authentic compound is not available for comparison, the identity of this product is tentative.
(§4) Values are % yield by HPLC-radiomonitoring of products after incubation of cell lysates from E. coli expressing the cDNA with ^14C-labelled GA substrate and cofactors for 2.5 h. Products and substrate were separated by HPLC and products identified by GC-MS. Where combined yield of products <100%, the remainder is unconverted substrate.

[2] = target: T2, AtGA2ox1 (Arabidopsis thaliana, UniProt Q8LEA2); assay: Incubation of recombinant GA 2-oxidase AtGA2ox1 (E. coli lysate) with 14C-labelled GA substrates; format: biochemical; conditions: for 2β-Hydroxy GA product: E. coli cell lysate, 14C-labelled GA substrate and cofactors, 2.5 h, HPLC-radiomonitoring
T2 construct: made in house; host or cells: E. coli (crude cell lysate)
T2 sequence (Q8LEA2 1-329): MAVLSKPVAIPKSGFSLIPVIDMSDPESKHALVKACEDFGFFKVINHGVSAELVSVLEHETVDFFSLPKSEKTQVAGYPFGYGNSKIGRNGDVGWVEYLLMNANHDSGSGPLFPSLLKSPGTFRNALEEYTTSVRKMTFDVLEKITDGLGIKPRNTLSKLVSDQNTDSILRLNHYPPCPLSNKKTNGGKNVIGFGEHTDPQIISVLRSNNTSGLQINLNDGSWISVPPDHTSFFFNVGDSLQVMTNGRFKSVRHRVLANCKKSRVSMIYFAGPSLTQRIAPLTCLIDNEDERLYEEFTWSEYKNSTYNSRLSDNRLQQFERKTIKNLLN
Method: as §1, §2, §3, §4

[3] = target: T3, AtGA2ox2 (Arabidopsis thaliana, UniProt Q9XFR9); assay: Incubation of recombinant GA 2-oxidase AtGA2ox2 (E. coli lysate) with 14C-labelled GA substrates; format: biochemical; conditions: for 2β-Hydroxy GA product / GA-catabolite Product: E. coli cell lysate, 14C-labelled GA substrate and cofactors, 2.5 h, HPLC-radiomonitoring; for conversion of C20-GA substrate: 14C-labelled substrate, dioxygenase cofactors
T3 construct: made in house; host or cells: E. coli (crude cell lysate)
T3 sequence (Q9XFR9 1-341): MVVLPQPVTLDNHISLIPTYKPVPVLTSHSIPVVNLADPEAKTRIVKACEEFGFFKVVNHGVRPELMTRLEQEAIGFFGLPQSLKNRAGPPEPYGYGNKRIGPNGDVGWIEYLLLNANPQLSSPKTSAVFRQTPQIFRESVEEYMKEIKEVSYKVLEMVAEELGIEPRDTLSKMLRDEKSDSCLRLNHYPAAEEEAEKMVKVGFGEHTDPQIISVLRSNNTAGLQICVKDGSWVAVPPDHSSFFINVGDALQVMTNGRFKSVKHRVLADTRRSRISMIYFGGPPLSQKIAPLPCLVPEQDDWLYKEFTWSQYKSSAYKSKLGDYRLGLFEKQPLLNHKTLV
Method: as §1, §2, §3, §4

[4] = target: T4, AtGA2ox3 (Arabidopsis thaliana, UniProt O64692); assay: Incubation of recombinant GA 2-oxidase AtGA2ox3 (E. coli lysate) with 14C-labelled GA substrates; format: biochemical; conditions: for 2β-Hydroxy GA product / GA-catabolite Product: E. coli cell lysate, 14C-labelled GA substrate and cofactors, 2.5 h, HPLC-radiomonitoring
T4 construct: made in house; host or cells: E. coli (crude cell lysate)
T4 sequence (O64692 1-335): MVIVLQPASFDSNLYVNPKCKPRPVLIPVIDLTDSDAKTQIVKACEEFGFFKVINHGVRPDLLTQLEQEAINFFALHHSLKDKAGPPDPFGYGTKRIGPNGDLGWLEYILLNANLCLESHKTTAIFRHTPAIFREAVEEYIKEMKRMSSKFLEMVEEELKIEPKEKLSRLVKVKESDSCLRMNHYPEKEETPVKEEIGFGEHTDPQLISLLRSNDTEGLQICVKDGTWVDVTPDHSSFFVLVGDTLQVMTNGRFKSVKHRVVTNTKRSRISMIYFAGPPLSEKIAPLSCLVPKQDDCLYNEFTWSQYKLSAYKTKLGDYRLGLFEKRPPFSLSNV
Method: as §1, §2, §3, §4

[5] = test system: severely dwarfed 35S-PcGA2ox1 line; assay: Metabolism of C19-GAs in a severely dwarfed 35S-PcGA2ox1 line compared with wild-type plants (HPLC); format: in vivo, Arabidopsis; conditions: severely dwarfed line versus wild-type, on the basis of HPLC
Source text: Metabolism of C19-Gas was compared in a severely dwarfed […] line with that in wild-type plants. […] Therefore, this GA can be used, when required, to reverse the GA-deficiency resulting from overexpressing GA 2-oxidase genes.

[6] = test system: GA 2-oxidases; assay: Substrate test with recombinant enzyme (GA 2-oxidases, enzyme not specified); format: biochemical
[7] = test system: 35S-PcGA2ox1 transgenic Arabidopsis lines; assay: GA3 treatment of Arabidopsis transformants overexpressing P. coccineus GA 2-oxidase; format: in vivo
Method: The transformation of Arabidopsis plants with P. coccineus GA 2-oxidase cDNA under the control of the CaMV ^35S promoter yielded the following results.
Five Arabidopsis lines that are homozygous for the 35S-PcGA2ox1 transgene were obtained. […] No flower buds were obtained when plants were grown in short photoperiods.

[8] = test system: T3 and T24 (AtGA2ox1 and AtGA2ox2) transcript; assay: Northern blot of GA 2-oxidase genes T3 and T24 after GA3 treatment of GA-deficient mutant; format: in vivo, Arabidopsis; conditions: immature flower buds and pedicels of GA-deficient mutant gal-2, after treatment
[9] = test system: 2-oxoglutarate-dependent dioxygenases; conditions: pea seeds; cited from earlier work
[10] = 14C-labelled substrate, dioxygenase cofactors

Row | Molecule | 2β-Hydroxy GA product [1] | 2β-Hydroxy GA product [2] | 2β-Hydroxy GA product [3] | 2β-Hydroxy GA product [4] | conversion to 2-oxidised products / metabolism by the dwarf line [5] | conversion of C20-GA substrate [1] | conversion of C20-GA substrate [3] | also measured
1 | C=C1C[C@]23C[C@@]1(O)CC[C@H]2[C@@]12CC[C@H](O)[C@@](C)(C(=O)O1)[C@H]2[C@@H]3C(=O)O [GA1] | 100 % yield | 41 % yield | 100 % yield | 100 % yield | to a much greater extent than did the wild-type | – | – | GA-catabolite Product [4]: Trace
2 | C=C1C[C@]23C[C@@]1(O)CC[C@H]2[C@@]12C=C[C@H](O)[C@@](C)(C(=O)O1)[C@H]2[C@@H]3C(=O)O [GA3] | – | – | – | – | did not metabolise | – | – | substrate for the GA 2-oxidases [6]: not a substrate; effect on bolting and flowering of the transgenic lines ([7]; 10 μM GA3, homozygous 35S-PcGA2ox1 lines): enabled them to bolt and produce normal flowers that set viable seed; response of dwarf transformants to treatment ([7]; Arabidopsis transformants, CaMV 35S promoter, concentration not given): increased stem elongation and normal flower development; transcript abundance for both T3 and T24 [8]: increased
3 | C=C1C[C@]23C[C@H]1CC[C@H]2[C@@]12CC[C@H](O)[C@@](C)(C(=O)O1)[C@H]2[C@@H]3C(=O)O [GA4] | 83 % yield | 25 % yield | 77 % yield | 86 % yield | to a much greater extent than did the wild-type | – | – | GA-catabolite Product [1]: 17 % yield; GA-catabolite Product [3]: 23 % yield; GA-catabolite Product [4]: 14 % yield
4 | C=C1C[C@]23C[C@H]1CC[C@H]2[C@@]12CCC[C@@](C)(C(=O)O1)[C@H]2[C@@H]3C(=O)O [GA9] | 87 % yield | 91 % yield | – | 100 % yield | to a much greater extent than did the wild-type | – | – | GA-catabolite Product [1]: 13 % yield; activity for 2β-hydroxylation of GA9, dependence on pH ([1]; between pH 6.5 and 8): varied little; pH at which activity for 2β-hydroxylation of GA9 peaked [2]: 7; activity for 2β-hydroxylation of GA9 ([2]; pH ≦5.9 and ≧8.1): no detectable activity; GA-catabolite Product [3]: 100 % yield; activity for 2β-hydroxylation of GA9, dependence on pH ([3]; between pH 6.5 and 8): varied little; activity for 2β-hydroxylation of GA9, dependence on pH ([4]; between pH 6.5 and 8): varied little
5 | C=C1C[C@]23C[C@H]1CC[C@H]2[C@]1(C)CCC[C@@](C)(C(=O)O)[C@H]1[C@@H]3C(=O)O [GA12] | – | – | – | – | – | No conversion | No conversion | conversion of C20-GA substrate [2, 10]: No conversion; conversion of C20-GA substrate [4, 10]: No conversion
6 | C=C1C[C@]23C[C@H]1CC[C@H]2[C@]1(CO)CCC[C@@](C)(C(=O)O)[C@H]1[C@@H]3C(=O)O [GA15 open lactone, 20-hydroxyGA12] | – | – | – | – | – | no conversion | converted to the same product by AtGAox2, but less efficiently than was the lactone form | –
7 | C=C1C[C@]23C[C@H]1CC[C@H]2[C@@]12CCC[C@@](C)(C(=O)OC1)[C@H]2[C@@H]3C(=O)O [GA15] | – | – | – | – | – | converted to a single product | converted to a single product | –
8 | C=C1C[C@]23C[C@@]1(O)CC[C@H]2[C@@]12CCC[C@@](C)(C(=O)O1)[C@H]2[C@@H]3C(=O)O [GA20] | 86 % yield | 50 % yield | 100 % yield | 25 % yield | to a much greater extent than did the wild-type | – | – | –
9 | prohexadione-calcium | – | – | – | – | – | – | – | conversion of GA29 to GA29-catabolite [9]: inhibited
